Results reported in ChEMBL document CHEMBL1201862, “PubChem BioAssay data set” (2004).
Where a name gives a salt, the structure may show the parent alone.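 Following 48 hours of exposure in 96-well plates, responses at five concentrations were used to interpolate endpoints linearly. Abbreviation: GI50, concentration required for 50% inhibition of growth.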 Activity calls are given as the source filed them. No stated cut-off is given here; in the data, active = GI50 up to about 1.1 µM and inactive = higher.

Experiments:
Test in all cases: growth of human tumour cells (NCI), 48 h
A549 = system: A549
U-251 = system: U-251
TK-10 = system: TK-10
OVCAR-4 = system: OVCAR-4
KM12 = system: KM12
SF-268 = system: SF-268
SK-OV-3 = system: SK-OV-3
SW-620 = system: SW-620
Hs-578T = system: Hs-578T
NCI-H522 = system: NCI-H522
IGROV-1 = system: IGROV-1
RXF 393 = system: RXF 393
SK-MEL-28 = system: SK-MEL-28
Malme-3M = system: Malme-3M
NCI-H23 = system: NCI-H23
OVCAR-8 = system: OVCAR-8
HOP-92 = system: HOP-92
A498 = system: A498
MDA-MB-435 = system: MDA-MB-435
SR = system: SR

Measured: GI50

C=C[C@@]1(C)CC[C@@H]2[C@@]3(C1)O[C@H]3CC1[C@](C)(C(=O)OC)CCC[C@@]12C (some centres undefined)
inactive: A549 23.1 µM | U-251 21.1 µM | TK-10 19.1 µM | OVCAR-4 38.5 µM | KM12 35.6 µM | SF-268 20.2 µM | SK-OV-3 27.4 µM | SW-620 23.7 µM | Hs-578T 20 µM | NCI-H522 16.9 µM | IGROV-1 25.6 µM | RXF 393 16.1 µM | SK-MEL-28 21.1 µM | Malme-3M 17.7 µM | NCI-H23 24.4 µM | OVCAR-8 21.3 µM | HOP-92 16.7 µM | A498 32.5 µM | MDA-MB-435 34 µM

CN(C)c1ccc([S+]([O-])Nc2ccccc2)cc1 (centres undefined)
inactive: A549 39 µM | U-251 19.3 µM | TK-10 > 100 µM | OVCAR-4 45 µM | KM12 17.1 µM | SF-268 45.6 µM | SW-620 51.2 µM | Hs-578T 45 µM | NCI-H522 13.2 µM | IGROV-1 30 µM | SR 31.6 µM | SK-MEL-28 > 100 µM | Malme-3M 49.8 µM | NCI-H23 45.7 µM | OVCAR-8 30.5 µM | MDA-MB-435 21.1 µM

CN(C)CCOC(c1ccccc1)c1ccccc1 [DIPHENHYDRAMINE HYDROCHLORIDE]
inactive: A549 > 100 µM | TK-10 > 100 µM | OVCAR-4 > 100 µM | KM12 > 100 µM | SW-620 > 100 µM | Hs-578T 66.7 µM | NCI-H522 > 100 µM | IGROV-1 > 100 µM | SR 38.5 µM | SK-MEL-28 > 100 µM | Malme-3M > 100 µM | NCI-H23 > 100 µM | OVCAR-8 > 100 µM | HOP-92 25 µM | MDA-MB-435 > 100 µM

C/C=C1/CC(C(=O)OC)N(C(=O)OCc2ccccc2)C1=S (centres undefined)
inactive: A549 > 100 µM | U-251 > 100 µM | TK-10 > 100 µM | OVCAR-4 > 100 µM | KM12 > 100 µM | SF-268 > 100 µM | SK-OV-3 > 100 µM | SW-620 > 100 µM | Hs-578T > 100 µM | NCI-H522 > 100 µM | IGROV-1 > 100 µM | RXF 393 > 100 µM | SK-MEL-28 > 100 µM | Malme-3M > 100 µM | NCI-H23 > 100 µM | OVCAR-8 > 100 µM | HOP-92 > 100 µM | A498 > 100 µM | MDA-MB-435 > 100 µM

CSc1c2c(C)n[nH]c2nn1-c1ccccc1
inactive: A549 > 100 µM | U-251 61.4 µM | TK-10 > 100 µM | OVCAR-4 53.7 µM | KM12 68.7 µM | SF-268 57.8 µM | SK-OV-3 > 100 µM | SW-620 57.1 µM | Hs-578T > 100 µM | NCI-H522 5.01 µM | SR 20.2 µM | RXF 393 30.6 µM | SK-MEL-28 > 100 µM | Malme-3M > 100 µM | NCI-H23 > 100 µM | OVCAR-8 27.4 µM | A498 90.8 µM | MDA-MB-435 > 100 µM

COc1ccc2c(c1)CN1C(=N2)CSC1c1c(Cl)cccc1[N+](=O)[O-] (centres undefined)
inactive: A549 31.9 µM | U-251 18.7 µM | TK-10 28.2 µM | OVCAR-4 31.5 µM | KM12 19.5 µM | SF-268 20 µM | SK-OV-3 39.7 µM | SW-620 15.6 µM | Hs-578T 24.7 µM | NCI-H522 23.7 µM | IGROV-1 31 µM | SR 15.6 µM | RXF 393 22.5 µM | SK-MEL-28 18.5 µM | Malme-3M 30.2 µM | NCI-H23 15.8 µM | OVCAR-8 30.1 µM | HOP-92 16.7 µM | MDA-MB-435 20.1 µM

O=Cc1cc(C(=O)OCc2ccccc2)n(S(=O)(=O)c2ccccc2)c1
inactive: A549 25.8 µM | TK-10 24 µM | OVCAR-4 43.5 µM | KM12 13.4 µM | SF-268 21.1 µM | SK-OV-3 21.6 µM | Hs-578T 15.8 µM | NCI-H522 40.4 µM | IGROV-1 25.9 µM | SR 3.47 µM | RXF 393 33.7 µM | SK-MEL-28 12.8 µM | Malme-3M 30.5 µM | NCI-H23 20.6 µM | OVCAR-8 31.9 µM | MDA-MB-435 2.29 µM

O=C(CN1CCOCC1)c1ccc2c(c1)oc(=O)n2CCN1CCCC1
inactive: U-251 > 100 µM | TK-10 > 100 µM | KM12 > 100 µM | SF-268 > 100 µM | SK-OV-3 > 100 µM | SW-620 > 100 µM | Hs-578T > 100 µM | IGROV-1 > 100 µM | SR > 100 µM | RXF 393 > 100 µM | SK-MEL-28 > 100 µM | Malme-3M > 100 µM | NCI-H23 > 100 µM | OVCAR-8 > 100 µM | A498 > 100 µM | MDA-MB-435 > 100 µM

c1ccc(-c2sc(-c3cccs3)cc2Cc2cccs2)cc1
inactive: A549 > 10 µM | TK-10 > 10 µM | OVCAR-4 > 10 µM | KM12 > 10 µM | SF-268 > 10 µM | SK-OV-3 > 10 µM | SW-620 > 10 µM | Hs-578T > 10 µM | NCI-H522 > 10 µM | IGROV-1 > 10 µM | SR > 10 µM | RXF 393 > 10 µM | SK-MEL-28 > 10 µM | Malme-3M > 10 µM | NCI-H23 > 10 µM | OVCAR-8 > 10 µM | HOP-92 > 10 µM | MDA-MB-435 > 10 µM

COc1ccc(-c2cc3c(c4cc(OC)ccc24)C(=O)OC3=O)cc1
inactive: A549 > 100 µM | U-251 > 100 µM | TK-10 > 100 µM | OVCAR-4 > 100 µM | KM12 > 100 µM | SF-268 > 100 µM | SK-OV-3 > 100 µM | SW-620 > 100 µM | Hs-578T > 100 µM | NCI-H522 > 100 µM | IGROV-1 > 100 µM | SR > 100 µM | RXF 393 > 100 µM | SK-MEL-28 > 100 µM | Malme-3M > 100 µM | NCI-H23 > 100 µM | OVCAR-8 > 100 µM | HOP-92 87.3 µM | MDA-MB-435 68.4 µM

O=c1oc2ccccc2c(Nc2ccc3c(c2)S(=O)(=O)c2ccccc2O3)c1[N+](=O)[O-]
inactive: A549 28.1 µM | U-251 19.7 µM | TK-10 22.4 µM | OVCAR-4 20 µM | KM12 28.9 µM | SF-268 33.8 µM | SK-OV-3 24 µM | SW-620 32.8 µM | Hs-578T 36.7 µM | NCI-H522 19.7 µM | IGROV-1 21.6 µM | SR 22 µM | RXF 393 19.5 µM | SK-MEL-28 18.1 µM | Malme-3M 23.5 µM | NCI-H23 23.5 µM | OVCAR-8 25.2 µM | HOP-92 20 µM | MDA-MB-435 23.4 µM
